Patent US20070197525A1, “Novel tetracyclic tetrahydrofuran derivatives” (priority 2004, published 2007)

What was measured:
[1] = molecular target: T1, human cloned 5-HT2A receptor (Homo sapiens, UniProt P28223); assay: In vitro binding affinity for 5-HT2A receptor (radioligand binding); settings: human cloned 5-HT2A receptor expressed in L929 cells, [125I]R91150 radioligand; read-out: 5-HT2A (pIC50) (converted)
T1 construct: expressed in transfected cells; host or cells: L929 cells
Experimental: (§1) The interaction of the compounds of Formula (I) with 5-HT2A and 5-HT2C receptors was assessed in in vitro radioligand binding experiments. In general, a low concentration of a radioligand with a high binding affinity for the receptor is incubated with a sample of a tissue preparation enriched in a particular receptor (1 to 5 mg tissue) in a buffered medium (0.2 to 5 ml). During the incubation, the radioligands bind to the receptor. When equilibrium of binding is reached, the receptor bound radioactivity is separated from the non-bound radioactivity, and the receptor bound activity is counted. The interaction of the test compounds with the receptors is assessed in competition binding experiments. Various concentrations of the test compound are added to the incubation mixture containing the tissue preparation and the radioligand. Binding of the radioligand will be inhibited by the test compound in proportion to its binding affinity and its concentration. The affinities of the compounds for the 5-HT2 receptors were measured by means of radioligand binding studies conducted with: (a) human cloned 5-HT2A receptor, expressed in L929 cells using [^125I]R91150 as radioligand and (b) human cloned 5-HT2C receptor, expressed in CHO cells using [^3H]mesulergine as radioligand.

[2] = molecular target: T2, human cloned 5-HT2C receptor (Homo sapiens, UniProt P28335); assay: In vitro binding affinity for 5-HT2C receptor (radioligand binding); settings: human cloned 5-HT2C receptor expressed in CHO cells, [3H]mesulergine radioligand; read-out: 5-HT2C (pIC50) (converted)
T2 construct: expressed in transfected cells; host or cells: CHO cells
T2 sequence (P28335 33-458): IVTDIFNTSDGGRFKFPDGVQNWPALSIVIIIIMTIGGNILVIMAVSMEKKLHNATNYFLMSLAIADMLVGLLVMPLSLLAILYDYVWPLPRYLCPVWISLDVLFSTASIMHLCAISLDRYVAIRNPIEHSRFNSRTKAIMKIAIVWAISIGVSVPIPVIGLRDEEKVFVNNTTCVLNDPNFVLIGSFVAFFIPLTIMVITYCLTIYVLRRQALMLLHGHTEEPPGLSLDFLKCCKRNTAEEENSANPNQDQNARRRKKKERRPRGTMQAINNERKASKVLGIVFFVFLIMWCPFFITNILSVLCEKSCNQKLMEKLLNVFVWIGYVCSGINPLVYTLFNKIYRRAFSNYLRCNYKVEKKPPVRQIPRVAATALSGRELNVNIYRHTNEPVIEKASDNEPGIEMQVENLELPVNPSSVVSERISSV
Experimental: as §1

[3] = molecular target: T3, human dopamine D2L receptor (Homo sapiens, UniProt P14416); assay: In vitro assay for D2 receptor binding; settings: for IC50: membranes of human D2L-transfected CHO cells, [3H]Spiperone radioligand, read-out: D2 (pIC50) (converted); for D2/NET: ratio of D2 pIC50 to NET-inhibition pIC50
T3 construct: expressed in transfected cells; host or cells: CHO cells (frozen membranes)
T3 sequence (P14416 whole entry): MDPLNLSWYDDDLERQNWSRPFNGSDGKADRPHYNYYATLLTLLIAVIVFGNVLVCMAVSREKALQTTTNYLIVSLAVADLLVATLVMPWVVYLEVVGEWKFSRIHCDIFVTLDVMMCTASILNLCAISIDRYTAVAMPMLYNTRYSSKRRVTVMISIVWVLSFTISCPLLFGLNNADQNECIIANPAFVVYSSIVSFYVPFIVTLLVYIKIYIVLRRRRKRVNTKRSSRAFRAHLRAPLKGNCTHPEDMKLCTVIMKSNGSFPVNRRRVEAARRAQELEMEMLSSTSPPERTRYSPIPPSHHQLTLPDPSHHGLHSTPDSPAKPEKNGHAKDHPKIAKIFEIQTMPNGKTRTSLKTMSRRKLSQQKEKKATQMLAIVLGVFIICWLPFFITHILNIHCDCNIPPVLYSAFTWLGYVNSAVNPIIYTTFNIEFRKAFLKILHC
Experimental: Frozen membranes of human dopamine D2L receptor-transfected CHO cells were thawed, briefly homogenised using an Ultra-Turrax T25 homogeniser and diluted in Tris-HCl assay buffer containing NaCl, CaCl2, MgCl2, KCl (50, 120, 2, 1, and 5 mM respectively, adjusted to pH 7.7 with HCl) to an appropriate protein concentration optimised for specific and non-specific binding. Radioligand [^3H]Spiperone (NEN, specific activity ˜70 Ci/mmol) was diluted in assay buffer at a concentration of 2 nmol/L. Prepared radioligand (50 μl), along with 50 μl of either the 10% DMSO control, Butaclamol (10^−6 mol/l final concentration), or compound of interest, was then incubated (30 min, 37° C.) with 400 μl of the prepared membrane solution. Membrane-bound activity was filtered through a Packard Filtermate harvester onto GF/B Unifilterplates and washed with ice-cold Tris-HCl buffer (50 mM; pH 7.7; 6×0.5 ml). Filters were allowed to dry before adding scintillation fluid and counting in a Topcount scintillation counter. Percentage specific bound and competition binding curves were calculated using S-Plus software (Insightful).

[4] = molecular target: T4, norepinephrine transporter (NET) (Rattus norvegicus, UniProt Q63380); assay: In vitro assay for NET inhibition (radioligand binding, rat brain cortex); settings: rat brain cortex membranes, [3H]Nixosetine radioligand; read-out: NET-inhibition (pIC50) (converted)
T4 construct: Cortex from rat brain was collected and homogenised; from tissue; host or cells: rat brain cortex membranes
T4 sequence (Q63380 1-617): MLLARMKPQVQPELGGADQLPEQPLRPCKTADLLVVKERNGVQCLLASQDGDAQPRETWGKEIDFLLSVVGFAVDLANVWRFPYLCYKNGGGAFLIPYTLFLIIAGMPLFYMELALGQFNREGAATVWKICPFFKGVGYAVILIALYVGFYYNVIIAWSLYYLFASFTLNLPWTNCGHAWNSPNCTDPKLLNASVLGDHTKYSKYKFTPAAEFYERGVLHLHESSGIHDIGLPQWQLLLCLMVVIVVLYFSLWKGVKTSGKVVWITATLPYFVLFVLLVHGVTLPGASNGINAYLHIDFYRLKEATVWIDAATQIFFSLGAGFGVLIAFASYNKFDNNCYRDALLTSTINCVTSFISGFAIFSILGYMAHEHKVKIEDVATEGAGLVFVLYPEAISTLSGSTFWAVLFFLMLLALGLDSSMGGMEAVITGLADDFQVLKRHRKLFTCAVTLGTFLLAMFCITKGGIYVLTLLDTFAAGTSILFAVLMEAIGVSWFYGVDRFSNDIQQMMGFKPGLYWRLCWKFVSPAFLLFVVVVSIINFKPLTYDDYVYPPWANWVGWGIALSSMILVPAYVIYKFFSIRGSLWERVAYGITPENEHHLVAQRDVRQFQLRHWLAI
Experimental: Cortex from rat brain was collected and homogenised using an Ultra-Turrax T25 and a Dual homogeniser in ice-cold homogenising buffer containing Tris, NaCl and KCl (50 mM, 120 mM and 5 mM, respectively, pH 7.4) prior to dilution to an appropriate protein concentration optimised for specific and non-specific binding. […] Membrane-bound activity was detected by filtration through a Packard Filtermate harvester onto GF/B Unifilterplates, washed with ice-cold Tris-HCl buffer, containing NaCl and KCl (50 mM, 120 mM and 4 mM; pH 7.4; 6×0.5 ml). Filters were allowed to dry for 24 h before adding scintillation fluid. Scintillation fluid was allowed to saturate filters for 24 h before counting in a Topcount scintillation counter. Percentage specific bound and competition binding curves were calculated using S-Plus software (Insightful).

[5] = Metabolic stability assay using human liver microsomes; type: in vitro ADME; settings: 5.0 μM test compound, 15 min incubation, LC-MS
Experimental: Compounds according to the invention were tested for metabolic stability in the following assay using human liver microsomes in comparison with prior art compound A, referred to above.
Sub-cellular tissue preparations are made by centrifugal separation after mechanical homogenization of tissue. Tissue is rinsed in ice cold 0.1 M Tris-HCl (pH 7.4) buffer to wash excess blood. Tissue is then blotted dry, weighed and chopped coarsely using surgical scissors. The tissue pieces are homogenized in 3 volumes of ice cold 0.1 M phosphate buffer (pH 7.4) for 7×10 sec. The vessel is kept in/on ice during the homogenization process. Tissue homogenates are centrifuged at 9000×g for 20 minutes at 4° C. The resulting supernatant can be stored at −80° C. and is designated ‘S9’.
The S9-fraction may be centrifuged at 100.000×g for 60 minutes (4° C.). The resulting supernatant is aspirated, aliquoted and designated ‘cytosol’. The pellet is re-suspended in 0.1 M phosphate buffer (pH 7.4) in a final volume of 1 mL per 0.5 g original tissue weight and designated ‘microsomes’.
The incubation is carried out in the following system:
• The reaction is started by the addition of 0.8 mM NADP and incubated for 15 min. • Total assay volume is 250 microliters. • The reaction is stopped by the addition of 2 volumes of DMSO (or acetonitrile). • The samples are centrifuged (10 min, 900×g) and supernatant stored at room temperature (when stopped with DMSO; no longer than 24 h) or −20° C. (when stopped with acetonitrile; no longer than 24 h) before analysis. • The supernatant material is then analysed by LC-MS to determine the extent of metabolism of the test compound in the microsomes

T1 sequence (P28223 whole entry): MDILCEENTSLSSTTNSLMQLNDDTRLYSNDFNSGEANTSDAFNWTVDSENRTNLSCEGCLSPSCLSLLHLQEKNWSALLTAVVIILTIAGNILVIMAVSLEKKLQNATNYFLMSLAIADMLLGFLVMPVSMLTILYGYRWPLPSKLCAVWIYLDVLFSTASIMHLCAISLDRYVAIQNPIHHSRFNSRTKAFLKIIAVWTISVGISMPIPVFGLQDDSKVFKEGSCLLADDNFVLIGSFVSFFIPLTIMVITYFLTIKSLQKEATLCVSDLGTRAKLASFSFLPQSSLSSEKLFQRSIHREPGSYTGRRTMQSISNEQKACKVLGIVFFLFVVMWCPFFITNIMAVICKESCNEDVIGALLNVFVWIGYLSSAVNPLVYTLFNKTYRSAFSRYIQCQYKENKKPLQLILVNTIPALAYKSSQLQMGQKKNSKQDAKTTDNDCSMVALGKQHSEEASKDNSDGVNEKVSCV

| IC50 [1] | IC50 [2] | IC50 [3] | D2/NET [3] | IC50 [4] | % metabolised [5] | SMILES |
| --- | --- | --- | --- | --- | --- | --- |
| 12.6 nM | 3.98 nM | 631 nM | 0.74 | 5.01 nM | 9% | CNCC1CC2c3ccccc3C(C)c3ccc(F)cc3C2O1 (single isomer, unassigned) [Compound 74] |
| – | – | – | – | – | 2.6% | C=C1c2ccccc2[C@H]2C[C@H](CN(C)C)O[C@@H]2c2cc(F)ccc21 [Compound 26] |
| 25.1 nM | 3.98 nM | 316 nM | 0.86 | 31.6 nM | 11.35% | C[C@@H]1c2ccccc2[C@H]2C[C@H](CN(C)C)O[C@@H]2c2cc(F)ccc21 [Compound 66] |
| 2 nM | 2 nM | 63.1 nM | 0.96 | 39.8 nM | – | CNCC1CC2c3ccccc3C(C)c3ccc(F)cc3C2O1 (single isomer, unassigned) [Compound 73] |

| SMILES | IC50 [1] | IC50 [2] | IC50 [3] | D2/NET [3] | IC50 [4] | % metabolised [5] |
| --- | --- | --- | --- | --- | --- | --- |
| CN(C)C[C@H]1C[C@@H]2c3ccccc3[C@](C)(O)c3ccc(F)cc3[C@H]2O1 [Compound 41] | 31.6 nM | 50.1 nM | > 1000 nM | <0.87 | 126 nM | 2.25% |
